For the assay, the system named is PANC-1 (human pancreatic cancer-derived cell line). The assay can be described thus: MTS assay on Panc-1 (human pancreas carcinoma cell line). In kind it is cell-based. The settings on record: 144 h; for IC50: PANC-1, MTS method, cell survival 6 days after exposure, 4-parameter logistic fit; for inhibition at 0.3125 µM: read-out: Growth inhibition (%) 0.3125 μM; for inhibition at 30 µM: read-out: Growth inhibition (%) 30 μM; for inhibition at 10 µM: read-out: Growth inhibition (%) 10 μM; for inhibition at 0.15625 µM: read-out: Growth inhibition (%) 0.15625 μM. The procedure, abridged: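 PANC-1 cells in D-MEM + 10% FBS at 37 °C, 5% CO2 exposed to 2-fold serial DMSO dilutions of compound for 6 days. Survival read by MTS (492 minus 630 nm, blank-corrected) relative to DMSO control as 100%; mean of 3 runs, 4-parameter logistic fit.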

The compound `CC(C)C[C@H]1ON(C(=O)/C=C/c2nc3ccccc3s2)[C@H]2CN(C3CCN(C(C)C)CC3)C(=O)[C@H](CC(C)(C)C)N2C1=O` [ID-73, (3R,6S,9aS)-1-((E)-3-(benzo[d]thiazol-2-yl)acryloyl)-3-isobutyl-8-(1-isopropylpiperidin-4-yl)-6-neopentyltetrahydropyrazino[2,1-c][1,2,4]oxadiazine-4,7(3H,6H)-dione] showed an IC50 of 0.14 µM. In addition, for the setting “PANC-1, MTS, 6 days”, the inhibition at 0.3125 µM was found to be 88.1%.
For the compound `CC(C)C[C@H]1ON(C(=O)/C=C/c2ccccn2)[C@H]2CN(C3CCNCC3)C(=O)[C@H](CC(C)C)N2C1=O` [ID-16, (3R,6S,9aS)-3,6-diisobutyl-8-(piperidin-4-yl)-1-((E)-3-(pyridin-2-yl)acryloyl)tetrahydropyrazino[2,1-c][1,2,4]oxadiazine-4,7(3H,6H)-dione], the midpoint of inhibition, the IC50, lay at 4.7 µM. The inhibition at 30 µM (PANC-1, MTS, 6 days) came to 100%.
In the case of `CC(=O)N1CCC(N2CCC(N3C[C@@H]4N(C(=O)/C=C/c5ccccn5)O[C@H](CC(C)C)C(=O)N4[C@@H](CC(C)C)C3=O)CC2)CC1` [ID-41, (3R,6S,9aS)-8-(1′-acetyl-[1,4′-bipiperidin]-4-yl)-3,6-diisobutyl-1-((E)-3-(pyridin-2-yl)acryloyl)tetrahydropyrazino[2,1-c][1,2,4]oxadiazine-4,7(3H,6H)-dione], half-maximal inhibition (IC50) required 6.3 µM. The inhibition at 10 µM (PANC-1, MTS, 6 days) stood at 98.5%.
Regarding `CC(C)C[C@H]1ON(C(=O)/C=C/c2nc(C#CCOCCO)cs2)[C@H]2CN(C3CCN(C(C)C)CC3)C(=O)[C@H](CC(C)(C)C)N2C1=O` [ID-97, (3R,6S,9aS)-1-((E)-3-(4-(3-(2-hydroxyethoxy)prop-1-yn-1-yl)thiazol-2-yl)acryloyl)-3-isobutyl-8-(1-isopropylpiperidin-4-yl)-6-neopentyltetrahydropyrazino[2,1-c][1,2,4]oxadiazine-4,7 (3H, 6H)-dione], the IC50 worked out at 0.15 µM. Also, the inhibition at 0.15625 µM (PANC-1, MTS, 6 days) amounted to 51%.
With `CC(C)C[C@H]1ON(C(=O)/C=C/c2nc3c(O)cccc3s2)[C@H]2CN([C@H]3CCN(CCCCO)C3)C(=O)[C@H](CC(C)(C)C)N2C1=O` [ID-85, (3R,6S,9aS)-1-((E)-3-(4-hydroxybenzo[d]thiazol-2-yl)acryloyl)-8-((S)-1-(4-hydroxybutyl)pyrrolidin-3-yl)-3-isobutyl-6-neopentyltetrahydropyrazino[2,1-c][1,2,4]oxadiazine-4,7(3H,6H)-dione], the IC50 came to 0.11 µM. Further, the inhibition at 0.15625 µM (PANC-1, MTS, 6 days) was 58.9%.
As for `CC(C)C[C@H]1ON(C(=O)/C=C/c2ccc3ccccc3c2)[C@H]2CN(CCC(N)=O)C(=O)[C@H](CC(C)C)N2C1=O` [ID-24, 3-((3R,6S,9aS)-3,6-diisobutyl-1-((E)-3-(naphthalen-2-yl)acryloyl)-4,7-dioxohexahydropyrazino[2,1-c] [1,2,4]oxadiazin-8(1H)-yl)propanamide], the IC50 was 15.8 µM. In addition, where the note is “PANC-1, MTS, 6 days”, the inhibition at 30 µM turned out to be 102%.
Consider `CC(C)C[C@H]1ON(C(=O)/C=C/c2nc3ccccc3s2)[C@H]2CN(C3CCN(CCOCCO)CC3)C(=O)[C@H](CC(C)(C)C)N2C1=O` [ID-77, (3R,6S,9aS)-1-((E)-3-(benzo[d]thiazol-2-yl)acryloyl)-8-(1-(2-(2-hydroxyethoxy)ethyl)piperidin-4-yl)-3-isobutyl-6-neopentyltetrahydropyrazino[2,1-c][1,2,4]oxadiazine-4,7(3H,6H)-dione], for which the inhibition at 0.3125 µM (PANC-1, MTS, 6 days) is 55.2%.
The compound `CC(C)C[C@H]1ON(C(=O)/C=C/[C@H]2CCCN2C)[C@H]2CN(CCC(N)=O)C(=O)[C@H](CC(C)C)N2C1=O` [ID-43, 3-((3R,6S,9aS)-3,6-diisobutyl-1-((E)-3-((R)-1-methylpyrrolidin-2-yl)acryloyl)-4,7-dioxohexahydropyrazino[2,1-c][1,2,4]oxadiazin-8 (1H)-yl)propanamide] came in with an IC50 of 9.4 µM. The inhibition at 10 µM (PANC-1, MTS, 6 days) was 78.5%.
Take `CC(C)C[C@H]1ON(C(=O)/C=C/c2ccc(-c3cccc(O)c3)cn2)[C@H]2CN(C3CCN(CCCCO)CC3)C(=O)[C@H](CC(C)(C)C)N2C1=O` [ID-80, (3R,6S,9aS)-8-(1-(4-hydroxybutyl)piperidin-4-yl)-1-((E)-3-(5-(3-hydroxyphenyl)pyridin-2-yl)acryloyl)-3-isobutyl-6-neopentyltetrahydropyrazino[2,1-c][1,2,4]oxadiazine-4,7(3H,6H)-dione]: under “PANC-1, MTS, 6 days, 0.625 μM, read-out: Growth inhibition (%) 0.625 μM”, the inhibition at 0.625 µM was 63.2%.

For orientation: IC50 means the concentration needed to halve the response being measured. As usually defined, the inhibition is the change of the read-out against control, counted positive when it falls.

For the origin of these results see patent publication US20230265104A1, “NOVEL HETEROCYCLIC COMPOUNDS” (PRISM BIOLAB CO., LTD., priority 2020, published 2023).
